Measurements from publication PMC9843824 (Neuropharmacology, 2022).
Values joined by “and” are separate entries in the source; they are usually repeats but may differ in a detail not shown here. Identical values can stand only once. Like-named read-outs stand apart in the source and are kept apart here. Blank lines part the entries; values can stand above or below the compound they belong to.

Assays:
physchem = assay type: physicochemical
[1] = tested on: neural activity regulated, high affinity MeAIB/Gln transport in mature rat hippocampal neurons; assay type: cell-based; details: for IC50: read-out: IC50, inhibition of Ca2+-regulated (spontaneous, activity regulated) MeAIB transport, hippocampal neurons DIV 19–21, 2 min preincubation, 37 °C; for Mode of inhibition of Ca2+-regulated MeAIB transport: Michaelis-Menten kinetic analysis; for Reduction of initial velocity (V, Vmax) of MeAIB transport / Vmax of Ca2+-regulated MeAIB transport in presence of inhibitor: inhibitor 1 μM; for Vmax of Ca2+-regulated MeAIB transport in presence of inhibitor: control 107 ± 9; for Result of screen 2 (block of MeAIB transport) / Block of activity regulated MeAIB transport, screen 2: compound 10 μM, 14C-MeAIB 5.4 μM
in vitro = in vitro ADME; details: rat, plasma
KA rat model of TLE = details: for Neuroprotection, FJB staining in hippocampus at 3 d: 10 mg/kg i.p. 1 h and 4 h after SE
[2] = assay type: in vivo; details: rat; for Oral availability / bioavailability: gavage vs i.p.
[3] = tested on: Ca2+-activated K+ channels; details: ref Sankaranarayanan et al., 2009; cited from earlier work
NaV1.2 = NaV1.2 (Mus musculus, UniProt B1AWN6); assay type: cell-based
NaV1.6 = NaV1.6 (Homo sapiens, UniProt Q9UQD0); assay: Whole-cell patch-clamp, HEK cells transiently transfected with NaV1.6; assay type: cell-based; details: IC50 NaV1.6, holding potential −80 mV, inter-pulse interval 10 s (0.1 Hz)
[4] = tested on: Ca2+-independent (low affinity) MeAIB transport in mature rat hippocampal neurons; assay type: cell-based; details: at 15 min of uptake
[5] = 30 mg/kg i.p. 1 h and 4 h after SE, then once/day for 2 d

NaV1.6, sequence (Q9UQD0 whole entry): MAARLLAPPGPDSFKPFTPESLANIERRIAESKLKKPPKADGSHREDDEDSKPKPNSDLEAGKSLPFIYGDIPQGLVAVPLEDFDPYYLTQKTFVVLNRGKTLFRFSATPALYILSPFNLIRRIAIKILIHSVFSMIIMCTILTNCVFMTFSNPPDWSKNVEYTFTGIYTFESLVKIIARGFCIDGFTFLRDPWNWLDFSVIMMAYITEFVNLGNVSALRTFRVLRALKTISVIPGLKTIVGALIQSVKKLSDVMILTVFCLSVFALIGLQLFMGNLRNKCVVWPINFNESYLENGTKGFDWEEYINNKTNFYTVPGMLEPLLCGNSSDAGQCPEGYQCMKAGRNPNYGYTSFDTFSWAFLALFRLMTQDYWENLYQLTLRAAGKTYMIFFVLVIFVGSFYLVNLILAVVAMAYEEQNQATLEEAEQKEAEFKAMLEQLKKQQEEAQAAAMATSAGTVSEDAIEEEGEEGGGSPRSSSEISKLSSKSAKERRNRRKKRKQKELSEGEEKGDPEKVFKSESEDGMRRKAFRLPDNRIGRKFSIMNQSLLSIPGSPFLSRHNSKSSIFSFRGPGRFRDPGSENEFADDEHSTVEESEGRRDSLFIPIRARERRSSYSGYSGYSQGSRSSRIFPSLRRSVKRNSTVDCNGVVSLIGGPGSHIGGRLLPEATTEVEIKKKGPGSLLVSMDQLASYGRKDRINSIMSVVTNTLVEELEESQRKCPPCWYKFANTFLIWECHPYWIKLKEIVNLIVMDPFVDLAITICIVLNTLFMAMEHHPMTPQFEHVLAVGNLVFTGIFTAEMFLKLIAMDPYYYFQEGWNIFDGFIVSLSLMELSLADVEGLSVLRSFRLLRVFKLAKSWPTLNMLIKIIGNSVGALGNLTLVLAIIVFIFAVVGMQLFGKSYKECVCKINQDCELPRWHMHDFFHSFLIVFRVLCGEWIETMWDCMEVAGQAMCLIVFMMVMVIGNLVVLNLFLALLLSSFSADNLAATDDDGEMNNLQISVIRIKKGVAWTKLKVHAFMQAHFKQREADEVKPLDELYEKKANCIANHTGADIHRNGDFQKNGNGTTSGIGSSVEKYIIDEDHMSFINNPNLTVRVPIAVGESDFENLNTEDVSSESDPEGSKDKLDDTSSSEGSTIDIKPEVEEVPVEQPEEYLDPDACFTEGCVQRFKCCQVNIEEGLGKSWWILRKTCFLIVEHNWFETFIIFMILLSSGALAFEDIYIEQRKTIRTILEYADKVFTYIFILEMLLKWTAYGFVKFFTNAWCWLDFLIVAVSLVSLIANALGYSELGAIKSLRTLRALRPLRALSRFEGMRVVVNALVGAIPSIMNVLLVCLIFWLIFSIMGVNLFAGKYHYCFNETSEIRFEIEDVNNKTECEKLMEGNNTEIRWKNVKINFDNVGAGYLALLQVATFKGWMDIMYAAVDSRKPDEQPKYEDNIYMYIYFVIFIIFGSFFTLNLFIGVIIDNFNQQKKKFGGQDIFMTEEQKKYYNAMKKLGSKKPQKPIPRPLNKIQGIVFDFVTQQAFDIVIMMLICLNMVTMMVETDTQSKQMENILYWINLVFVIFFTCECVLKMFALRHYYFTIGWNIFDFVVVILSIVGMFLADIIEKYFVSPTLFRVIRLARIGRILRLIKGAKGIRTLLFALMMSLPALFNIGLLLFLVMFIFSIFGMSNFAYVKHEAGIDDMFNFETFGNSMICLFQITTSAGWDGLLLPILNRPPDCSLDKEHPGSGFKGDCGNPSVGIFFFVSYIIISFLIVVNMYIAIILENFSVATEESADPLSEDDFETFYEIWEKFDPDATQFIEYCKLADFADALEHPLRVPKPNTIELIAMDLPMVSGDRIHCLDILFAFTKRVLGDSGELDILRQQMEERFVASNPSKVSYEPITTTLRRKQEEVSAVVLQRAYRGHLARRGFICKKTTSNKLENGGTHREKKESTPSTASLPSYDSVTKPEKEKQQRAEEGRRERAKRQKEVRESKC
NaV1.2, sequence (B1AWN6 whole entry): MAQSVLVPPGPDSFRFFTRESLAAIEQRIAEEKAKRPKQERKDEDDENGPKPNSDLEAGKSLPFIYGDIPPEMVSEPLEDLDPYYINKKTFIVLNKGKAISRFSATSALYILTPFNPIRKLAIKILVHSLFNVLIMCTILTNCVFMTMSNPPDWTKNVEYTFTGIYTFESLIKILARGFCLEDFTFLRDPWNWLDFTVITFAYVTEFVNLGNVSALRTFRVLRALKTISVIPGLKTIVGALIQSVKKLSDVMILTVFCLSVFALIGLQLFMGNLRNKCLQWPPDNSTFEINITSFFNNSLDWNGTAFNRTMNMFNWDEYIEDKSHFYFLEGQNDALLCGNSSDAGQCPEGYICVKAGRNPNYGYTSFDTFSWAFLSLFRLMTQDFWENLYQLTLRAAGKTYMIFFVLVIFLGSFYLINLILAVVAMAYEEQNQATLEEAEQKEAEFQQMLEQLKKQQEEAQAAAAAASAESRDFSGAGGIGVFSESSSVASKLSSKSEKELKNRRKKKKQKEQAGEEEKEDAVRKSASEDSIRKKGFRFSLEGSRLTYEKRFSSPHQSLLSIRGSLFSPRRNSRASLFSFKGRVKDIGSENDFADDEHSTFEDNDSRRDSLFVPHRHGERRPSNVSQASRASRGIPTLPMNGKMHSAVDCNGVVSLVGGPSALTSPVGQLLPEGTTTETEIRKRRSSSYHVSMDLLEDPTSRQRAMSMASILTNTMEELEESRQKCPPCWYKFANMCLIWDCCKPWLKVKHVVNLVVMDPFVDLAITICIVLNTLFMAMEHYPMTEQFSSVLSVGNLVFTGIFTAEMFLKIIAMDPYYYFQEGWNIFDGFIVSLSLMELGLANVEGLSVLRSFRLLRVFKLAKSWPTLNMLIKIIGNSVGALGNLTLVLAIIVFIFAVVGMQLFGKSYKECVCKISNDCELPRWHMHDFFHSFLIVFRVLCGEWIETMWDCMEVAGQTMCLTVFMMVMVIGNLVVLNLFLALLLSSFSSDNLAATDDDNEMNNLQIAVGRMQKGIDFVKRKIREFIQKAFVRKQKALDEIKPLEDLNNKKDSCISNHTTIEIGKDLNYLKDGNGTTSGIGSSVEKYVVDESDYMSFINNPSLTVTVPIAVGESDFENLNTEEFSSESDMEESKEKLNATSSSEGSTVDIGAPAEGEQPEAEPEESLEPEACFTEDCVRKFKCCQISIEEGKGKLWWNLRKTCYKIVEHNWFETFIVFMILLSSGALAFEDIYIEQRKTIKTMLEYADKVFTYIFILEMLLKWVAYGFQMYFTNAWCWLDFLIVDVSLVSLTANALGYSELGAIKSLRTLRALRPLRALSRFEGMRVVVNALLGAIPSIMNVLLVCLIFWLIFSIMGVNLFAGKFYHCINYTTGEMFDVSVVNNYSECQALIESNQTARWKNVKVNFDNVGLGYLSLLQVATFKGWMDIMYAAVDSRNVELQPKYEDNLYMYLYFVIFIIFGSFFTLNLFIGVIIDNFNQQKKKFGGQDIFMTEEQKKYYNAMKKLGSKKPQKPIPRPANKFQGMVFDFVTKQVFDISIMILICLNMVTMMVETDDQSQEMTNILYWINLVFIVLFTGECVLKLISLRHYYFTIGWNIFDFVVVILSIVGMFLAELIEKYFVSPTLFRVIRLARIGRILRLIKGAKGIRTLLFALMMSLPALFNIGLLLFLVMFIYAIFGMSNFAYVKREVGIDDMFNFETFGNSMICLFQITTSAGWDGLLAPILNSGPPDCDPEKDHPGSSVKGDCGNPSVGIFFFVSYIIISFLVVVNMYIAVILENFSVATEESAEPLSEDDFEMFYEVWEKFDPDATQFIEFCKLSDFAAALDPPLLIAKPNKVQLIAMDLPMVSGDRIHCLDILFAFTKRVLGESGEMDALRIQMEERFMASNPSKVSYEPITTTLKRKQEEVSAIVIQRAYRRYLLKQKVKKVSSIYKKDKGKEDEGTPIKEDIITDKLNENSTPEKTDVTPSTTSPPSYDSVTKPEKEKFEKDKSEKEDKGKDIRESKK

Structure (SMILES): Cc1ccc(-c2nc(N)sc2Br)c2ccccc12 [SKA-375, 5-Bromo-4-(4-methylnaphthalen-1-yl)thiazol-2-amine]
logP (physchem): 5.25

Structure (SMILES): COc1ccc(CCN(C)CCCC(C#N)(c2ccc(OC)c(OC)c2)C(C)C)cc1OC (stereo not drawn) [verapamil, reference compound]
Spontaneous MeAIB transport after 15 min in presence of inhibitor [1]: 119 ± 9 pmol/well

Structure (SMILES): Cc1ccc(-c2csc(N)n2)c2ccccc12 [SKA-190, 4-(4-Methylnaphthalen-1-yl)thiazol-2-amine]
Result of screen 2 (block of MeAIB transport) [1]: active | logP (physchem): 4.53

Structure (SMILES): Nc1nc(-c2cccc3ccccc23)cs1 [SKA-75, 4-(Naphthalen-1-yl)thiazol-2-amine]
Block of activity regulated MeAIB transport, screen 2 [1]: ~ 50% | IC50 ([1]; 15 min uptake): 4.5 ± 0.45 µM | logP (physchem): 4.05

Structure (SMILES): Cc1ccc(-c2nc(N)sc2Cl)c2ccccc12 [SKA-377, 5-Chloro-4-(4-methylnaphthalen-1-yl)thiazol-2-amine]
logP (physchem): 4.91 | fraction unbound (in vitro): 0.01 | Oral availability / bioavailability [2]: excellent oral availability | Neuroprotection, FJB staining in hippocampus at 3 d (KA rat model of TLE; then once/day for 2 d): neuro-protective, but not as protective as riluzole | Hippocampal neural injury by FJB staining and NeuN fluorescence at 3 d (KA rat model of TLE; [5]): neuroprotective

Structure (SMILES): CNC(C)(C)C(=O)O [MeAIB, methylaminoisobutryic acid, reference compound]
Vmax of Ca2+-dependent MeAIB transport ([1]; at 15 min of uptake): 1605 ± 139 pmol/well | Km ([1]; read-out: Km for spontaneous Ca2+-dependent MeAIB transport, Michaelis-Menten analysis, 15 min uptake): 61 ± 5 µM | Vmax of Ca2+-independent MeAIB transport [4]: 1793 ± 131 pmol/well

Structure (SMILES): Nc1nc(-c2cccc3ccccc23)c(Cl)s1 [SKA-378, 5-Chloro-4-(naphthalen-1-yl)thiazol-2-amine]
Mode of inhibition of Ca2+-regulated MeAIB transport [1]: noncompetitive | Reduction of initial velocity (V, Vmax) of MeAIB transport [1]: ~ 50% | Vmax of Ca2+-regulated MeAIB transport in presence of inhibitor [1]: 73 ± 6 pmol/min | IC50 ([1]; 15 min uptake): 1.1 ± 0.17 µM | IC50 (NaV1.6): 28 µM and ~28 µM | logP (physchem): 4.2 | fraction unbound (in vitro): 0.008 | Brain penetration [2]: excellent | Neuroprotection, FJB staining in hippocampus at 3 d (KA rat model of TLE; then once/day for 2 d): neuro-protective, but not as protective as riluzole | FJB staining in hippocampal CA1-4 neurons at 3 d (KA rat model of TLE; [5]): minimal | NeuN fluorescence in pyramidal neuron subfields at 3 d (KA rat model of TLE; [5]): largely prevents the diminished NeuN fluorescence | Rats still exhibiting maximal stage 5 seizures (Racine scale) (KA rat model of TLE; 30 mg/kg i.p. given before KA (pretreatment)): > 50% | FJB staining, hippocampal CA pyramidal neuron layers at 3 d (KA rat model of TLE; 30 mg/kg i.p. pretreatment): blocks neuronal hippocampal injury | NeuN fluorescent intensity in CA4, CA3, CA1 at 3 d (KA rat model of TLE; 30 mg/kg i.p. pretreatment): nearly identical to sham levels | Seizure severity vs non-treated KA-injected rats (KA rat model of TLE; 30 mg/kg i.p. pretreatment): did not show a significant reduction in seizure severity | Duration of KA-induced SE events (KA rat model of TLE; 30 mg/kg post-SE): not affected

The next lines start with results.

IC50 ([1]; 15 min uptake): 4.3 ± 0.4 µM | logP (physchem): 4.53 | fraction unbound (in vitro): 0.015
Structure (SMILES): Nc1nc(-c2ccc(OC(F)(F)F)cc2)c(Cl)s1 [SKA-376, 5-Chloro-4-(4-(trifluoromethoxy)phenyl)thiazol-2-amine]
Hippocampal neural injury by FJB staining and NeuN fluorescence at 3 d (KA rat model of TLE; [5]): did not significantly reduce neural injury

logP (physchem): 4.58 | fraction unbound (in vitro): 0.043 | Brain penetration [2]: excellent | Oral availability / bioavailability [2]: excellent
Structure (SMILES): Nc1nc(-c2ccc(OC(F)(F)F)cc2)cs1 [SKA-41, 4-(4-(Trifluoromethoxy)phenyl)thiazol-2-amine]
Neuroprotection, FJB staining in hippocampus at 3 d (KA rat model of TLE; then once/day for 2 d): neuro-protective, but not as protective as riluzole | Activity on Ca2+-activated K+ channels [3]: inactive

IC50 ([1]; 15 min uptake): 0.86 ± 0.02 µM | Frequency dependence of NaV1.2 block (NaV1.2): not frequency dependent | IC50 (NaV1.6): 115 ± 2 µM | Behaviour of rats at higher doses (KA rat model of TLE; e.g., 30 mg/kg): render rats immobile and unresponsive
Structure (SMILES): Nc1nc2ccc(OC(F)(F)F)cc2s1 [Riluzole, reference compound]
Mode of inhibition of Ca2+-regulated MeAIB transport [1]: noncompetitive | Reduction of initial velocity (V, Vmax) of MeAIB transport [1]: ~ 50% | Vmax of Ca2+-regulated MeAIB transport in presence of inhibitor [1]: 54 ± 1 pmol/min | Spontaneous MeAIB transport after 15 min in presence of inhibitor ([1]; riluzole 10 μM, 23.4 μM 14C-MeAIB, total without inhibitor 619±21): 133 ± 8 pmol/well | Neuroprotection, FJB staining in hippocampus at 3 d (KA rat model of TLE; then once/day for 2 d): prevents acute neural injury altogether | Behaviour of rats after treatment (KA rat model of TLE; 10 mg/kg post-SE): relatively immobile/sedated | Duration of KA-induced SE events (KA rat model of TLE; 10 mg/kg post-SE, untreated 4–6 h): less than 2 h | Neural injury in hippocampal limbic areas (KA rat model of TLE; post-treated): largely prevented neural injury

IC50 ([1]; 15 min uptake): 6.5 ± 0.25 µM | logP (physchem): 4.42
Structure (SMILES): Nc1nc(-c2ccc3ccccc3c2)c(Cl)s1 [SKA-379, 5-Chloro-4-(naphthalen-2-yl)thiazol-2-amine]
Neuroprotection, FJB staining in hippocampus at 3 d (KA rat model of TLE; then once/day for 2 d): neuro-protective, but not as protective as riluzole | Hippocampal neural injury by FJB staining and NeuN fluorescence at 3 d (KA rat model of TLE; [5]): neuroprotective

logP (physchem): 4.42
Structure (SMILES): Nc1nc(-c2ccc3ccccc3c2)c(Br)s1 [SKA-220, 5-Bromo-4-(naphthalen-2-yl)thiazol-2-amine]
Result of screen 2 (block of MeAIB transport) [1]: active

logP (physchem): 4.14
Structure (SMILES): Nc1nc(-c2ccc3ccccc3c2)c(F)s1 [SKA-382, 5-Fluoro-4-(naphthalen-2-yl)thiazol-2-amine]

IC50 ([1]; 15 min uptake): 6.2 ± 0.9 µM | logP (physchem): 4.05
Structure (SMILES): Nc1nc(-c2ccc3ccccc3c2)cs1 [SKA-76, 4-(Naphthalen-2-yl)thiazol-2-amine]
Block of activity regulated MeAIB transport, screen 2 [1]: ~ 50%

logP (physchem): 4.76 | fraction unbound (in vitro): 0.005
Structure (SMILES): Nc1nc(-c2cccc3ccccc23)c(Br)s1 [SKA-219, 5-Bromo-4-(naphthalen-1-yl)thiazol-2-amine]
Block of activity regulated MeAIB transport, screen 2 [1]: > 95%
